Reference: ChEMBL document CHEMBL1158909, “A New Brominated Diphenyl Ether from a Philippine Dysidea Species” (J Nat Prod, 1990)
Activity calls are given as the source filed them. No cut-off for these calls is given here.

Columns and labels:
[1] = test system: Bacillus subtilis; assay: Antimicrobial activity against Bacillus subtilis; format: functional, organism-based
[2] = test system: Staphylococcus aureus; assay: Antimicrobial activity against Staphylococcus aureus; format: functional, organism-based

SMILES | Activity [1] | Activity [2]
Oc1c(Br)c(Br)c(Br)c(Br)c1Oc1ccccc1Br | Active | Active
COc1c(Br)c(Br)c(Br)c(Br)c1Oc1ccc(Br)cc1Br | inactive | inactive
COc1c(Br)c(Br)c(Br)c(Br)c1Oc1ccccc1Br | inactive | inactive
Oc1c(Br)c(Br)c(Br)c(Br)c1Oc1ccc(Br)cc1Br | Active | Active
